In assay [1] the test system is Human immunodeficiency virus 1. As to the kind of experiment: Anti-HIV-1 activity of phytohemagglutininin activated peripheral blood mononuclear cells infected with the macrophage-tropic HIV-1 virus (JRCSF) at 100 nM. Type of assay: functional.
For assay [2], the system named is Human immunodeficiency virus 1. Briefly: Anti-HIV-1 activity of phytohemagglutininin activated peripheral blood mononuclear cells infected with the macrophage-tropic HIV-1 virus (JRCSF) at 10 nM. Type of assay: functional.

Where a SMILES comes first, the peptide text is derived from it.

`CC(=O)N[C@@H](CC(=O)O)C(=O)N[C@H](C(=O)N[C@H](C(=O)N1CCC[C@H]1C(=O)N[C@@H](C)C(N)=O)[C@@H](C)O)[C@@H](C)O` (Ac-DTTPA-NH2) yielded an inhibition at 0.1 µM in assay [1] of 46%. Moreover, testing at 0.01 µM in assay [2] gave an inhibition of 43%.
Turning to `C[C@H](NC(=O)[C@@H]1CCCN1C(=O)[C@@H](NC(=O)[C@@H](NC(=O)[C@H](CC(=O)O)NC(=O)[C@@H](N)CO)[C@@H](C)O)[C@@H](C)O)C(=O)O` (H-SDTTPA-OH), the inhibition at 0.1 µM in assay [1] was found to be 4%. For the same compound, the inhibition at 0.01 µM in assay [2] came out at 9%.
In assay [1], `CC(=O)N[C@@H](CO)C(=O)N1CCC[C@H]1C(=O)N[C@@H](Cc1ccc(O)cc1)C(=O)N[C@@H](CO)C(=O)N[C@@H](CO)C(=O)N[C@@H](CC(=O)O)C(=O)N[C@H](C(=O)N[C@H](C(=O)N1CCC[C@H]1C(=O)N[C@@H](C)C(N)=O)[C@@H](C)O)[C@@H](C)O` (Ac-SPYSSDTTPA-NH2) showed an inhibition at 0.1 µM of 69%. Also, the inhibition at 0.01 µM in assay [2] was determined as 51%.
The like results for `C[C@H](NC(=O)[C@@H]1CCCN1C(=O)[C@@H](NC(=O)[C@@H](NC(=O)[C@H](CC(=O)O)NC(=O)[C@H](CO)NC(=O)[C@H](CO)NC(=O)[C@H](Cc1ccc(O)cc1)NC(=O)[C@@H]1CCCN1)[C@@H](C)O)[C@@H](C)O)C(=O)O` [PYSSDTTPA] (H-PYSSDTTPA-OH) were, in that order, 39% and 24%.
The matching figures for `C[C@H](NC(=O)[C@@H]1CCCN1C(=O)[C@@H](NC(=O)[C@@H](NC(=O)[C@H](CC(=O)O)NC(=O)[C@H](CO)NC(=O)[C@H](CO)NC(=O)[C@@H](N)Cc1ccc(O)cc1)[C@@H](C)O)[C@@H](C)O)C(=O)O` (H-YSSDTTPA-OH): 34% and 41%.
The like results for `C[C@H](NC(=O)[C@@H]1CCCN1C(=O)[C@@H](NC(=O)[C@@H](NC(=O)[C@H](CC(=O)O)NC(=O)[C@H](CO)NC(=O)[C@@H](N)CO)[C@@H](C)O)[C@@H](C)O)C(=O)O` (H-SSDTTPA-OH) were, in that order, 22% and 22%.
In turn, `C[C@H](NC(=O)[C@@H]1CCCN1C(=O)[C@@H](NC(=O)[C@@H](N)[C@@H](C)O)[C@@H](C)O)C(=O)O` (H-TTPA-OH) had an inhibition at 0.1 µM in assay [1] of 0%. In assay [2], the inhibition at 0.01 µM stood at 0%.
Turning to `C[C@H](NC(=O)[C@@H]1CCCN1C(=O)[C@@H](NC(=O)[C@@H](NC(=O)[C@@H](N)CC(=O)O)[C@@H](C)O)[C@@H](C)O)C(=O)O` (H-DTTPA-OH), the inhibition at 0.1 µM in assay [1] came out at 29%. Further, in assay [2], at 0.01 µM the inhibition was 18%.

The term inhibition denotes how much of the control response was suppressed.

These data come from ChEMBL document CHEMBL1132264, “Low-molecular-weight anti-HIV-1 peptides from the amino-terminal sequence of RANTES: possible lead compounds for coreceptor-directed anti-HIV-1 agents” (1999).
